Test results: patent publication US9506926B2, “Molecular predictors of therapeutic response to specific anti-cancer agents” (The Regents of the University of California, priority 2011, dated 2016)
“Also recorded” adds a separate entry of the source.

Tested on: breast cancer cell lines
Assay: Cell growth inhibition assay (Cell Titer Glo, 72 h drug exposure, GI50) across a breast cancer cell line panel, with subtype, copy number and growth rate association analysis
Assay type: cell-based, human
Conditions: for Subtype specificity: Table 1, most sensitive cell line subtype, q<0.10 deemed significant; for Association of 17q12 (ERBB2) amplification with compound response / Association of 20q13 (STK15/AURKA) amplification with compound response: high amplification vs. low or no amplification, t-test; for Response of the cell line panel as a whole: compounds excluded from further analysis; for Molecular Subtype in which the compound shows Preferential Activity: Table 7 summary; for Subtype-preferential activity in breast cancer cell lines (in words): running text and figure legends, response as −log10(GI50); for Association of response with growth rate (doubling time): 2-way ANCOVA of cell line class and growth rate

Row | SMILES | Subtype specificity | Subtype-preferential activity in breast cancer cell lines (in words) | also measured
1 | CCN(CC)CCCCNc1ncc2cc(-c3cc(OC)cc(OC)c3)c(NC(=O)NC(C)(C)C)nc2n1 [PD173074] | Claudin-low |  | 
2 | CCNCCCNC/C=C\CNCCCNCC [CGC-11047] | Basal |  | 
3 | C=CCNC1=C2C[C@@H](C)C[C@H](OC)[C@H](O)[C@@H](C)/C=C(\C)[C@H](OC(N)=O)[C@@H](OC)/C=C\C=C(/C)C(=O)NC(=CC1=O)C2=O [17-AAG] | ERBB2AMP |  | Association of 17q12 (ERBB2) amplification with compound response: associated with sensitivity
4 | O=c1cc(-c2ccccc2)oc2cc(O)c(O)c(O)c12 [baicalein] |  |  | Response of the cell line panel as a whole: almost none of the cell lines in the panel responded strongly
5 | CC(/C=C/C(=O)NO)=C\[C@@H](C)C(=O)c1ccc(N(C)C)cc1 [Trichostatin A] | Luminal | preferentially active in luminal class cell lines | Molecular Subtype in which the compound shows Preferential Activity: Luminal (ER+/PR+)
6 | CO[C@H]1C[C@@H]2CC[C@@H](C)[C@@](O)(O2)C(=O)C(=O)N2CCCC[C@H]2C(=O)O[C@H]([C@H](C)C[C@@H]2CC[C@@H](OC(=O)C(C)(CO)CO)[C@H](OC)C2)CC(=O)[C@H](C)/C=C(\C)[C@@H](O)[C@@H](OC)C(=O)[C@H](C)C[C@H](C)/C=C/C=C/C=C/1C [Temsirolimus] | Luminal |  | 
7 | CN(C)C/C=C/C(=O)Nc1cc2c(Nc3ccc(F)c(Cl)c3)ncnc2cc1O[C@H]1CCOC1 [BIBW 2992] | ERBB2AMP |  | Association of 17q12 (ERBB2) amplification with compound response: associated with sensitivity
8 | CCn1cc(-c2ccnc3[nH]c(-c4cccc(CN(C)C)c4)cc23)c(-c2ccc(NC(=O)N(C)C)cc2)n1 [GSK1070916] | Claudin-low | more active against basal and/or claudin-low cell lines | Molecular Subtype in which the compound shows Preferential Activity: Claudin-low; also recorded: Tumors with low or no 20q13 amplification; Association of 20q13 (STK15/AURKA) amplification with compound response: is associated with; also recorded: associated with resistance; Association of 20q13 (STK15/AURKA) amplification with compound response (listed as GSK.AUR1): less effective in tumors that have genomic DNA copy number amplifications at 20q13; Subtype-preferential activity in breast cancer cell lines (in words) (listed as GSK.AUR1): preferentially active against Claudin-low cell lines
9 | COc1cc2ncnc(Nc3ccc(F)c(Cl)c3)c2cc1OCCCN1CCOCC1 [Gefitinib] | ERBB2AMP |  | Association of 17q12 (ERBB2) amplification with compound response: associated with sensitivity
10 | O=c1[nH]cc(F)c(=O)[nH]1 [5-FU, Fluorouracil] |  |  | Association of response with growth rate (doubling time): strong effects of both subtype and growth rate on response; Association of response with growth rate (doubling time) (listed as 5-florouracil): strong significance in the ANCOVA model for both class and doubling time; also recorded: decreases as doubling time increases; Association of response with growth rate (doubling time) (listed as Fluorouracil): active against cell lines with rapid growth rates; also recorded: active against cell lines that grow more quickly; Shift of mean sensitivity between luminal and basal subtypes (ANCOVA model, FIG. 4B): shifts by approximately one log; Molecular Subtype in which the compound shows Preferential Activity: KI67+ tumors; Subtype-preferential activity in breast cancer cell lines (in words) (listed as 5-florouracil): not significant in the subtype test alone; Subtype-preferential activity in breast cancer cell lines (in words) (listed as Fluoruracil): more effective against basal cell lines (both triple negative and claudin-low) than against luminal cell lines
11 | O=C1c2ccccc2-[n+]2ccc3c([nH]c4ccccc43)c21 [Fascaplysin] | Luminal |  | 
12 | C#Cc1cccc(Nc2ncnc3cc(OCCOC)c(OCCOC)cc23)c1 [Erlotinib] | Basal | preferentially active in basal class cell lines | Molecular Subtype in which the compound shows Preferential Activity: Basal (ER−/PR−/HER2−Claudin+)
13 | COc1ncc(-c2ccc3nccc(-c4ccnnc4)c3c2)cc1NS(=O)(=O)c1ccc(F)cc1F [GSK2126458] | Luminal/ERBB2AMP |  | 
14 | O=c1[nH]c2ccccc2n1C1CCN(Cc2ccc(-c3nc4cc5[nH]cnc5cc4nc3-c3ccccc3)cc2)CC1 [Sigma AKT1-2 inhibitor] | Luminal | Luminal and ERBB2AMP cell lines preferentially respond | 
15 | N.N.[Cl][Pt][Cl] [Cisplatin] | Basal/Claudin-low | basal cell line sensitivity; also recorded: preferential activity in basal or claudin-low cell lines | 
16 | NS(=O)(=O)c1ccc(Nc2nc(OCC3CCCCC3)c3[nH]cnc3n2)cc1 [NU6102] |  |  | Association of 17q12 (ERBB2) amplification with compound response: associated with resistance
17 | CS(=O)(=O)CCNCc1ccc(-c2ccc3ncnc(Nc4ccc(OCc5cccc(F)c5)c(Cl)c4)c3c2)o1 [Lapatinib] | Luminal/ERBB2AMP |  | 
18 | Cc1[nH]c2ccccc2c1CCNCc1ccc(/C=C/C(=O)NO)cc1 [LBH589] | Luminal |  | 
19 | CC(=O)O[C@@]12CO[C@@H]1C[C@H](O)[C@@]1(C)C(=O)[C@H](O)C3=C(C)[C@@H](OC(=O)[C@H](O)[C@@H](NC(=O)OC(C)(C)C)c4ccccc4)C[C@@](O)([C@@H](OC(=O)c4ccccc4)[C@H]21)C3(C)C [Docetaxel] | Basal/Claudin-low | preferential activity in basal or claudin-low cell lines | 
20 | COc1cc([C@@H]2c3cc4c(cc3[C@@H](O[C@@H]3O[C@@H]5CO[C@@H](C)O[C@H]5[C@H](O)[C@H]3O)[C@H]3COC(=O)[C@H]23)OCO4)cc(OC)c1O [Etoposide] | Claudin-low | preferential activity in basal or claudin-low cell lines | 
21 | COc1cc2ncnc(Nc3cccc(Cl)c3)c2cc1OC [AG1478] | ERBB2AMP |  | 
22 | O=C(Nc1cc(Cl)cc2c1[nH]c1cnccc12)c1cccnc1 [PS1145] |  |  | Response of the cell line panel as a whole: almost none of the cell lines in the panel responded strongly
23 | O=C(CCCCCCC(=O)Nc1ccccc1)NO [Vorinostat] | Luminal | preferentially active in luminal class cell lines | Molecular Subtype in which the compound shows Preferential Activity: Luminal (ER+/PR+)
24 | Cc1cc(Nc2cc(N3CCN(C)CC3)nc(Sc3ccc(NC(=O)C4CC4)cc3)n2)n[nH]1 [VX-680] | not ERBB2AMP |  | 
